PMC10818921, “Validation of Liquid Chromatography Coupled with Tandem Mass Spectrometry for the Determination of 12 Tyrosine Kinase Inhibitors (TKIs) and Their Application to Therapeutic Drug Monitoring in Adult and Pediatric Populations” (Pharmaceutics, 2023)
Read-outs that look alike come from different tables or passages of the source.

Tests used:
[1] = Therapeutic drug monitoring: steady-state residual plasma concentrations by LC-MS/MS; format: in vivo, human; conditions: for Concentration range CI 95% / IQR / Mean concentration / Median concentration: residual plasma concentration at steady state; for comparison of dose–weight-adjusted concentrations between adult and pediatric groups: Mann–Whitney test, p-value < 0.0001 where significant
Protocol: For each calibration sample, an adapted volume of working solution was added and evaporated. Then, 150 µL of IS methanolic solution was added to 50 µL of plasma sample (blank plasma for calibration sample or patient plasma) to precipitate proteins. After vortex mixing and 10 min of centrifugation, the supernatant was transferred into injection vials, and 10 µL was injected into the chromatographic system.
Chromatography was performed on a Dionex Ultimate 3000 Pump (ThermoFisher, les Ulis, France) using a Kinetex C18 Polar column (100 × 2.1 mm, 2.6 µm particle size) heated at 40 °C. The mobile phase A was made with 2 mM of ammonium formate in 0.1% formic acid in ultra-pure water and stored at +4 °C for a maximum of one week. […] The gradient was set as follows: 10 to 40% of B from 0 to 1 min, then 40 to 90% of B in 1 min, and keeping this for 2 min before resetting to 10% B in 1 min. An equilibration time of one minute at 10% mobile phase B at the end of the chromatographic run allowed the column to be equilibrated before the next analysis.
The compounds were detected using an Altis® triple quadrupole tandem mass spectrometer (ThermoFisher Scientific, Les Ulis, France) equipped with an electrospray ionization (ESI) source set in positive ionization mode with a potential of +3.5 kV. Nitrogen was used as cladding and auxiliary gas at a pressure of 30 and 10 arbitrary units (AU), respectively. The collision gas, argon, was used at a pressure of 1.5 mTorr. The temperature of the ion transfer capillary was set at 350 °C. Data were collected in multiple reaction monitoring mode (MRM) with two transitions (m/z) per compound. Xcalibur® (v 4.2.47) and LC Quan® (v 2.7.0) software (ThermoFisher Scientific) were used for data acquisition and processing.
The study was conducted in accordance with the Declaration of Helsinki and approved by the local ethics committee.
Populations treated with each TKI are described in Table 4.
Blood samples were collected in a steady state (i.e., a minimum of 2 weeks after the initiation of therapy or dose adjustment) just prior to dosing. The samples were collected in lithium heparin tubes without a separator and were immediately centrifuged, decanted, and frozen at −20 °C before LC-MS/MS analysis.
A Mann–Whitney […] was performed to compare dose–weight-adjusted concentrations between adult and pediatric groups. Results are illustrated in box-and-whiskers plots. GraphPad Prism v.8.3.0 Software (San Diego, CA, USA) was used to process and visualize data.

[2] = cited from earlier work
[3] = cited from earlier work; for Target Concentrations, Cmax / Target Concentrations, Cmin: adults
[4] = Stability of TKI methanolic solutions, 7 days at −20 °C; format: physicochemical; conditions: for bias, stability of TKI methanolic solutions: QCs made with 7-day-old methanolic solutions; for storage of methanolic working solutions: −20 °C for 7 days
Protocol: To evaluate TKI stability in methanolic solutions, the four QC levels were realized with seven-day-old solutions and were analyzed six times. The accuracy and precision of the samples have to be in conformity with less than 15% variation.

[5] = cited from earlier work; remark: listed apart in the source

Row | Structure (SMILES) | Dose–weight-adjusted mean concentration ([1]; adults) | Dose–weight-adjusted median concentration ([1]; adults) | Concentration range CI 95% ([1]; adults) | IQR ([1]; adults) | Mean concentration ([1]; adults) | Median concentration ([1]; adults) | Target Concentrations, Cmax [3] | bias, stability of TKI methanolic solutions [4] | storage of methanolic working solutions [4] | Target Concentrations, Cmin [3] | comparison of dose–weight-adjusted concentrations between adult and pediatric groups [1] | Dose–weight-adjusted mean concentration ([1]; children) | Dose–weight-adjusted median concentration ([1]; children) | Concentration range CI 95% ([1]; children) | IQR ([1]; children) | Mean concentration ([1]; children) | Median concentration ([1]; children) | also measured
1 | COC(=O)N[C@@H](C)CNc1nccc(-c2cn(C(C)C)nc2-c2cc(Cl)cc(NS(C)(=O)=O)c2F)n1 [Encorafenib, encorafenib] | 3.4 ng/mL/mg/kg | 2.6 ng/mL/mg/kg | [16–21] ng/mL | [10–22] ng/mL | 18.6 ng/mL | 15 ng/mL | Cmax = 3100 ng/mL |  |  |  |  |  |  |  |  |  |  | frozen stability in plasma [2]: at least 30 days
2 | C[C@@H](Oc1cc(-c2cnn(C3CCNCC3)c2)cnc1N)c1c(Cl)ccc(F)c1Cl [Crizotinib, crizotinib] |  |  |  |  |  |  |  | ≥ 15% | must be prepared extemporaneously | Cmin ≥ 235 ng/mL |  |  |  |  |  |  |  | stability at −20 °C for 7 days ([4]; methanolic solutions, CQ3): not stable; stability in plasma [2]: minimum of one month
3 | CC(=O)Nc1cccc(-n2c(=O)n(C3CC3)c(=O)c3c(Nc4ccc(I)cc4F)n(C)c(=O)c(C)c32)c1 [Trametinib, trametinib] | 443.8 ng/mL/mg/kg | 386.3 ng/mL/mg/kg | [11–13] ng/mL | [8–14] ng/mL | 12.4 ng/mL | 11 ng/mL |  |  |  | Cmin ≥ 10.6 ng/mL | significantly lower in the adult group than in the pediatric group | 578.4 ng/mL/mg/kg | 538.5 ng/mL/mg/kg | [11–14] ng/mL | [6.5–17] ng/mL | 12.6 ng/mL | 9.7 ng/mL | toxicity reported ([5]; children treated for glioma): signs of cutaneous toxicity; adverse effects described [5]: Skin disorders (acneiform eruptions and rash); serum stability ([2]; −20 °C): 20 months; minimum effective concentrations [3]: 10 ng/mL
4 | CC(C)(C)c1nc(-c2cccc(NS(=O)(=O)c3c(F)cccc3F)c2F)c(-c2ccnc(N)n2)s1 [Dabrafenib, dabrafenib] | 28.3 ng/mL/mg/kg | 14 ng/mL/mg/kg | [88–122] ng/mL | [29–114] ng/mL | 105.3 ng/mL | 53.5 ng/mL |  |  |  | Cmin ≥ 15 ng/mL | not statistically different | 62.3 ng/mL/mg/kg | 19.1 ng/mL/mg/kg | [26–178] ng/mL | [15–131] ng/mL | 102.3 ng/mL | 18.4 ng/mL | adverse effects described [5]: Skin disorders (acneiform eruptions and rash); stable in plasma ([2]; −40 °C): more than 20 weeks
5 | Cn1cnc2c(F)c(Nc3ccc(Br)cc3F)c(C(=O)NOCCO)cc21 [Binimetinib, binimetinib] | 48.8 ng/mL/mg/kg | 41.6 ng/mL/mg/kg | [51–64] ng/mL | [38–69] ng/mL | 57.4 ng/mL | 52 ng/mL | Cmax = 654 ng/mL |  |  |  | higher concentrations of binimetinib in adults | 17.5 ng/mL/mg/kg | 14.6 ng/mL/mg/kg | [37–204] ng/mL | [62–143] ng/mL | 120 ng/mL | 100 ng/mL | frozen stability in plasma [2]: at least 30 days
6 | O=C(c1ccc(F)c(F)c1Nc1ccc(I)cc1F)N1CC(O)([C@@H]2CCCCN2)C1 [Cobimetinib, cobimetinib] | 145.7 ng/mL/mg/kg | 138.1 ng/mL/mg/kg | [24–94] ng/mL | [46.5–83] ng/mL | 59.3 ng/mL | 70 ng/mL | Cmax = 270 ng/mL |  |  |  | not statistically different | 85.4 ng/mL/mg/kg | 62.6 ng/mL/mg/kg | [74–118] ng/mL | [34–114] ng/mL | 96.3 ng/mL | 64.3 ng/mL | stable in plasma ([2]; −40 °C): more than 20 weeks
7 | C=CC(=O)Nc1cc(Nc2nccc(-c3cn(C)c4ccccc34)n2)c(OC)cc1N(C)CCN(C)C [Osimertinib, osimertinib] | 196.7 ng/mL/mg/kg | 211.4 ng/mL/mg/kg | [122–320] ng/mL |  | 221 ng/mL | 207 ng/mL |  | ≥ 15% | must be prepared extemporaneously |  |  |  |  |  |  |  |  | stability in plasma [2]: minimum of one month; Target Concentrations, Cmin ([3]; 40 mg dosage): ≥ 90 ng/mL; Target Concentrations, Cmin ([3]; 80 mg dosage): ≥ 160 ng/mL
8 | C[C@H]1Oc2cc(cnc2N)-c2c(nn(C)c2C#N)CN(C)C(=O)c2ccc(F)cc21 [Lorlatinib, lorlatinib] |  |  |  |  |  |  | Cmax = 575 ng/mL |  |  |  |  |  |  |  |  |  |  | stable in plasma ([2]; −30 °C): at least 2 months
9 | C=CC(=O)Nc1cc(Nc2nccc(-c3c[nH]c4ccccc34)n2)c(OC)cc1N(C)CCN(C)C [AZ5104] | 25.8 ng/mL/mg/kg | 21.7 ng/mL/mg/kg | [16–56] ng/mL | [11–47] ng/mL | 32 ng/mL | 25 ng/mL |  | ≥ 15% | must be prepared extemporaneously |  |  |  |  |  |  |  |  | 
10 | CCc1cc2c(cc1N1CCC(N3CCOCC3)CC1)C(C)(C)c1[nH]c3cc(C#N)ccc3c1C2=O [Alectinib, alectinib] | 17.3 ng/mL/mg/kg | 16.7 ng/mL/mg/kg | [292–424] ng/mL | [302–408] ng/mL | 358 ng/mL | 346 ng/mL |  |  |  |  |  |  |  |  |  |  |  | 
